Experimental data from patent US20150010474A1, “Compounds And Methods For Selective Imaging And/Or Ablation” (Auckland Uniservices Limited, priority 2011, published 2015).

How the values were obtained:
[1] = system: human solid tumour xenograft HCT116 (WT); experiment: Hypoxia-dependent binding by immunofluorescent microscopy with pimonidazole co-staining; format: in vivo, NIH-III nude mice; settings: 60 mg/kg i.p., 60 minutes after 60 mg/kg pimonidazole; tumours excised after 120 minutes
Protocol: FIG. 9 illustrates the absence of hypoxic dependent binding of compound 67 in the human solid tumour xenograft HCT116 relative to compound 15 whilst including hypoxia co-staining by pimonidazole (Hypoxyprobe™) as an internal reference (positive control). HCT116 WT tumours were inoculated subcutaneously onto the flank of NIH-Ill nude mice. When the mixed tumours reached approximately 500 mm^3, mice were dosed i.p. with 60 mg/kg of pimonidazole, and 60 minutes later dosed with either 60 mg/kg of compound 15 or 60 mg/kg of compound 67. After 120 minutes the tumours were excised, and fixed in formalin before being embedded in paraffin wax. Tumour section were cut (5 microns) and mounted onto glass slides for immunodetection of bound adducts of compounds. Immunofluorescent microscopy was performed using a monoclonal antibody (Mab1, hybridoma clone 4.3.11.3) conjugated to Alexa-488 (green) for the detection of pimonidazole adducts, and monoclonal antibody ELK3-51 directly conjugated to the fluorophore CY5 (Ex/Em 650/670 nm) for detection of adducts formed by compound 15 or compound 67. The overlap of pimonidazole with either one of these markers appears as yellow. Images were acquired on a Zeiss LSM 710 confocal microscope (×20 magnification).

[2] = system: human solid tumour xenograft NCI-H1299 (WT); experiment: Hypoxia-dependent binding by ex vivo flow cytometry with pimonidazole co-staining; format: in vivo, NIH-III nude mice; settings: 60 mg/kg i.p.; tumours excised after 120 minutes, single cell suspension
Protocol: FIG. 11 illustrates the absence of hypoxic-dependent binding of compound 67 and compound 93 by flow cytometry in the human solid tumour xenograft NCI-H1299, with reference to hypoxia staining by compound 15 and pimonidazole (Hypoxyprobe™) as internal standards (positive controls). NCI-H1299 WT tumours were inoculated subcutaneously onto the flank of NIH-III nude mice. When the mixed tumours reached approximately 800 mm^3, mice were dosed i.p. with 60 mg/kg of pimonidazole, and 60 minutes later dosed with either 60 mg/kg of compound 15, or 60 mg/kg of compound 67, or 60 mg/kg of compound 93. After 120 minutes the tumours were excised and enzyme digested to form a single cell suspension before fixation in ice cold 80% ethanol. Single cell immunodetection of bound adducts of compounds was performed using a monoclonal antibody (Mab1, hybridoma clone 4.3.11.3) conjugated to Alexa-488 (Ex/Em 499/519; green) for the detection of pimonidazole adducts, and monoclonal antibody ELK3-51 directly conjugated to the fluorophore CY5 (Ex/Em 650/670 nm; red) for detection of adducts formed by compound 15 or compound 67 or compound 93. The ex-vivo tumour cell samples were analysed on a Becton Dickinson FACscan flow cytometer using FACS Diva software. Integrated fluorescence measurements were recorded for 10,000 single non-debris events. Fluorescence emission was monitored at 530 nm±20 and 670-700 nm for detection of Alexa-488 and CY5 conjugated monoclonal antibodies, respectively.

[3] = system: E. coli SOS (DNA damage repair) response; experiment: SOS assay (β-galactosidase activity) in NTR over-expression library; format: cell-based, Escherichia coli; settings: 4 h challenge with 8 μM compound 67
Protocol: FIG. 2 illustrates the metabolism of compound 67 by members of the 58-membered NTR over-expression library as measured by (A) Growth Inhibition assay and (B) SOS assay. (A) Growth Inhibition assay. Turbidity (OD600) of NTR over-expressing cell cultures was recorded directly before and after 4 h incubation with 400 μM compound 67. Percentage Growth Inhibition represents the decrease in OD600 of challenged cells relative to unchallenged control cells for each strain post-incubation (i.e. 100−[100×OD600 of challenged cells/OD600 of unchallenged cells]). Data are the average of 2 independent assays and the error bars indicate ±1 standard deviation. Labelled bars indicate the NfsA and NfsB family members within the NTR library. (B) SOS assay. […] The data presented is the SOS response, measured by β-galactosidase activity (in Miller units), of NTR over-expressing E. coli SOS-R2 after 4 h challenge with 8 μM compound 67. Full details of assay protocol and calculations are as described in G A Prosser, J N Copp, S P Syddall, E M Williams, J B Smaill, W R Wilson, A V Patterson and D F Ackerley. 2010. Discovery and evaluation of Escherichia coli nitroreductases that activate the anti-cancer prodrug CB1954. Biochemical Pharmacology 79: 678-687. Data are the average of 2 independent assays and the error bars indicate ±1 standard deviation. […]

NfsB (E.s) = experiment: Initial rate of metabolism by purified recombinant bacterial nitroreductase (NADPH consumption, UV/Vis); format: biochemical, Enterobacter (Chronobacter) sakazakii; settings: compound 500 μM, NADPH 200 μM, 10 mM Tris-Cl pH 7.0; μmol NADPH consumed per mg enzyme per minute
Protocol: (§1) The relative initial rates of reductive metabolism of the nitro moiety of test compounds by bacterial nitroreductase's can be measured experimentally by incubating the test compound at near-saturating concentration (determined empirically) with the purified recombinant bacterial nitroreductase enzymes in the presence of NADPH co-factor. UV/Vis spectroscopy is used to measure consumption of the co-factor, indicating metabolism of the test compound by the nitroreductase.
(§2) Compounds 67, 93 and 97 (500 μM) were added to NADPH (200 μM) in 10 mM Tris-Cl pH 7.0. Reactions were initiated by enzyme addition (between 5 and 20 μg per reaction). Rates represent μmol of NADPH consumed per mg enzyme added per minute.

NfsB (E.c) = target: T1, NfsB (E.c) (Escherichia coli, UniProt P38489); experiment: as above; format: biochemical; settings: compound 500 μM, NADPH 200 μM, 10 mM Tris-Cl pH 7.0; μmol NADPH consumed per mg enzyme per minute
T1 construct: made in house
Protocol: as §1, §2

T1 sequence (P38489 whole entry): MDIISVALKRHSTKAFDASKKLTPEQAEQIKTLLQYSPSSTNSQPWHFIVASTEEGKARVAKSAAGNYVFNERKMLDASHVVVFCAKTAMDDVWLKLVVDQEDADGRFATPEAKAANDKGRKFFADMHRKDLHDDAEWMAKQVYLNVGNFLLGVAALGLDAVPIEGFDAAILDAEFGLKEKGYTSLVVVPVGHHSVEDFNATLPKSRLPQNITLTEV

Structure (SMILES)	melting point [°C]	Hypoxia-dependent binding in HCT116 WT tumours (FIG. 9) [1]	Hypoxia-dependent binding in NCI-H1299 WT tumours, flow cytometry (FIG. 11) [2]	SOS response upon activation [3]	Rate of metabolism by NfsB (E.s) (NfsB (E.s)) [µmol/min/mg]	Rate of metabolism by NfsB (E.c) (NfsB (E.c)) [µmol/min/mg]
Cc1ncc([N+](=O)[O-])n1CC(=O)NCC(F)(F)C(F)(F)F [Compound 67, 2-(2-methyl-5-nitro-1H-imidazol-1-yl)-N-(2,2,3,3,3-pentafluoropropyl)acetamide]	149 to 151	not detected in the pimonidazole positive hypoxic regions of the tumour	unable to bind to and thus detect pimonidazole-positive (hypoxic) tumour cells	demonstrates an ability to evoke the E. coli SOS (DNA damage repair) response upon activation	2.4	–
O=C(Cn1cnc([N+](=O)[O-])c1)NCC(F)(F)C(F)(F)F [Compound 93, 2-(4-nitro-1H-imidazol-1-yl)-N-(2,2,3,3,3-pentafluoropropyl)acetamide]	–	–	unable to bind to and thus detect pimonidazole-positive (hypoxic) tumour cells	–	–	0.82
